“Also recorded” adds a separate entry of the source.
Legend:
TOM20-V5-APEX2 = experiment: Fixed-cell APEX labeling with TOM20-V5-APEX2 (confocal colocalization, line scan); format: cell-based, Human
Description: HeLa cells were transiently transfected with the APEX2-POI construct using PEI when cells reached approximately 70% confluency, following the protocol provided by the production company of PEI. After transfection and protein expression, the cells were fixed with 4% PFA in 1×DPBS for 15 minutes at room temperature. Subsequently, the cells were washed three times with DPBS. For the APEX reaction, JFT probes (100-500 μM) and H2O2 (0.5-1 mM) were used in 0.1 M PHEMS buffer for the specified time points. The APEX2-mediated reaction was quenched using a quencher solution (a mixture of sodium ascorbate, trolox, and sodium azide, see PMID: 23371551), and the cells were washed three times with DPBS buffer. For immunofluorescence imaging, the cells were permeabilized with −20° C. methanol for 5 minutes, followed by the standard immunofluorescence staining protocol. The detection of JFT fluorescence and immunofluorescence was performed using the GFP channel (excitation at 488 nm), RFP channel (excitation at 561 nm), and Cy5 channel (excitation at 647 nm) of a confocal light microscope 428 (FV3000, Olympus, Japan). […]

[1] = Photophysical properties in buffer (absorption, fluorescence); format: physicochemical
Description: These photophysical properties render the JF probes suitable for detection in the RFP channel (excitation at 561 nm, fluorescence emission filter: 565-620 nm). […] The absorbance spectra largely shifted from 515 (pH 7.4) to 416 nm when the probe was incubated at pH 6.0. […] This property enables the detection of JF probes in the GFP channel; however, the fluorescence intensity was negligible compared to that of GFP or GFP variant proteins (mEosEM etc.).

organelle-targeted APEX2 = experiment: Fixed-cell FLEX staining of organelle-targeted APEX2-POIs; format: cell-based, Human; conditions: fixed cells, PHEMS buffer 100 mM pH 7.4
Description: HeLa cells were transiently transfected with the APEX2-POI construct using PEI when cells reached approximately 70% confluency, following the protocol provided by the production company of PEI. After transfection and protein expression, the cells were fixed with 4% PFA in 1×DPBS for 15 minutes at room temperature. Subsequently, the cells were washed three times with DPBS. For the APEX reaction, JFT probes (100-500 μM) and H2O2 (0.5-1 mM) were used in 0.1 M PHEMS buffer for the specified time points. […] The detection of JFT fluorescence and immunofluorescence was performed using the GFP channel (excitation at 488 nm), RFP channel (excitation at 561 nm), and Cy5 channel (excitation at 647 nm) of a confocal light microscope 428 (FV3000, Olympus, Japan).
It was assessed whether JFT1 could react with APEX2 targeting various organelles under fixed conditions. […] Furthermore, JFT1 effectively generated a fluorescence signal with the APEX2-tagged POIs (APEX2-POIs) within specific compartments, including the mitochondrial matrix (Matrix-V5-APEX2), nucleus (V5-APEX2-NLS), and ER lumen (SEC61B-V5-APEX2) under fixed-cell conditions. […] These findings validate the wide applicability of JFT1 for APEX2-mediated fluorescence signal amplification (FLEX) in various subcellular organelles. […]

Matrix-V5-APEX2 = experiment: Pre-embedding osmium treatment CLEM of JFT1-stained fixed Matrix-V5-APEX2 cells; format: cell-based; conditions: 500 μM JFT1, 1 mM H2O2, 5 min; 0.4% OsO4, dehydration, resin embedding, 100 nm ultrathin section
Description: To obtain the SEM-based CLEM images via pre-embedding osmium treatment procedure (FIG. 2C, lower), cells were fixed with 2.5% glutaraldehyde (Electron Microscopy Sciences, cat. No. 16200) and 2% paraformaldehyde (Electron Microscopy Sciences, cat. No. 19210) in 0.1 M cacodylate solution (pH 7.0) for 30 min at 4° C. After washing, 20 mM glycine solution was used for quenching unreacted aldehyde. Next, JFT1 probe labeling with 500 μM JFT1 and 0.5-1 mM H2O2, was conducted for 5 min. Next, JFT1-labeled cells were post-fixed with 0.4% osmium tetroxide (OsO4) containing 1.5% potassium ferrocyanide in distilled water for 30 min at 4° C. and en bloc in 1% uranyl acetate (EMS, USA, cat. No. 22400) overnight and dehydrated with a graded ethanol series. The samples were then embedded with an EMBed-812 embedding kit (Electron Microscopy Sciences, USA, cat. No. 14120) and polymerized in an oven at 60° C. […]
Given the significance of osmium staining in EM sample preparation, the preservation of JF and JFT1 fluorescence after OsO4 treatment was tested. Remarkably, both JF- and JFT1-stained APEX2-expressing regions retained 70-80% of the original osmium-resistant fluorescence intensity even after osmium treatment (0.1% OsO4), facilitating their detection using confocal microscopy (FIG. 2D). […]

OCCn1cc(C[n+]2c(/C=C/c3ccc(O)cc3)sc3ccccc32)nn1 [JFT1, (E)-3-((1-(2-hydroxyethyl)-1H-1,2,3-triazol-4-yl)methyl)-2-(4-hydroxystyryl)benzo[d]thiazol-3-ium]
labeling pattern by line scan analysis vs anti-V5 stain (TOM20-V5-APEX2; fixed cells, TOM20-V5-APEX2, RFP signal): most optimal and restricted labeling pattern; also recorded: most well-matched pattern | Pearson correlation coefficient (r) between probe-labeling region (RFP signal) and enzyme-expressed region (anti-V5 stain) (TOM20-V5-APEX2; fixed sample, TOM20-V5-APEX2): 0.91 | green fluorescence Imax ([1]; acidic pH (pH<7), excitation 405 or 450 nm): 520 nm | absorbance spectra maximum ([1]; pH 6.0): 416 nm | absorbance spectra maximum ([1]; pH 7.4): 515 nm | fluorescence signal in GFP channel (organelle-targeted APEX2): weak green fluorescence signal | fluorescence signal in RFP channel (organelle-targeted APEX2): strong red fluorescence signal | fluorescence signal after pre-embedding steps (Matrix-V5-APEX2): well-preserved

From US20260118350A1, “Fluorescent Probes for Peroxidase-Mediated Fluorescent Signal Amplification” (Seoul National University R&DB Foundation, priority 2024, published 2026)
